Measurements published in PubChem BioAssay (NCI).
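Where inhibition never reached the appropriate level, the endpoint shown equals the highest concentration tested. Otherwise, values were interpolated linearly from a five-concentration, 48-hour dose response in 96-well plates. The concentration for full growth arrest is given as TGI.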

Legend:
Test in all cases: DTP human tumour cell line panel, 48 h
SNB-75 CNS = test system: SNB-75 CNS
M19-MEL melanoma = test system: M19-MEL melanoma
LXFL 529 NSCLC = test system: LXFL 529 NSCLC
K-562 leukemia = test system: K-562 leukemia
KM12 colon = test system: KM12 colon
SW-620 colon = test system: SW-620 colon
HCT-116 colon = test system: HCT-116 colon
SK-OV-3 ovarian = test system: SK-OV-3 ovarian
SK-MEL-5 melanoma = test system: SK-MEL-5 melanoma
CAKI-1 renal = test system: CAKI-1 renal
NCI-H226 lung = test system: NCI-H226 lung
RPMI-8226 leukemia = test system: RPMI-8226 leukemia
OVCAR-3 ovarian = test system: OVCAR-3 ovarian
EKVX NSCLC = test system: EKVX NSCLC
SR leukemia = test system: SR leukemia
LOX IMVI melanoma = test system: LOX IMVI melanoma
UACC-62 melanoma = test system: UACC-62 melanoma
KM20L2 colon = test system: KM20L2 colon
IGROV1 ovarian = test system: IGROV1 ovarian
TK-10 renal = test system: TK-10 renal
HOP-92 NSCLC = test system: HOP-92 NSCLC
HT29 colon = test system: HT29 colon
SF-295 CNS = test system: SF-295 CNS
NCI-H522 lung = test system: NCI-H522 lung
SF-539 CNS = test system: SF-539 CNS
HL-60(TB) leukemia = test system: HL-60(TB) leukemia
UACC-257 melanoma = test system: UACC-257 melanoma
SK-MEL-28 melanoma = test system: SK-MEL-28 melanoma
MOLT-4 leukemia = test system: MOLT-4 leukemia
M14 melanoma = test system: M14 melanoma
ACHN renal = test system: ACHN renal
A549 NSCLC = test system: A549 NSCLC
SF-268 CNS = test system: SF-268 CNS
DLD-1 colon = test system: DLD-1 colon
786-0 renal = test system: 786-0 renal
CCRF-CEM leukemia = test system: CCRF-CEM leukemia
DMS 273 small cell lung = test system: DMS 273 small cell lung
SN12C renal = test system: SN12C renal
HOP-62 NSCLC = test system: HOP-62 NSCLC
OVCAR-8 ovarian = test system: OVCAR-8 ovarian
A498 renal = test system: A498 renal
MALME-3M melanoma = test system: MALME-3M melanoma
UO-31 renal = test system: UO-31 renal
MDA-MB-231 breast = test system: MDA-MB-231 breast
BT-549 breast = test system: BT-549 breast
SK-MEL-2 melanoma = test system: SK-MEL-2 melanoma
HCC-2998 colon = test system: HCC-2998 colon
T-47D breast = test system: T-47D breast
MDA-MB-435 = test system: MDA-MB-435
NCI/ADR-RES ovarian = test system: NCI/ADR-RES ovarian
OVCAR-5 ovarian = test system: OVCAR-5 ovarian
SNB-19 CNS = test system: SNB-19 CNS
MCF7 breast = test system: MCF7 breast
PC-3 prostate = test system: PC-3 prostate
U251 CNS = test system: U251 CNS
NCI-H23 lung = test system: NCI-H23 lung
OVCAR-4 ovarian = test system: OVCAR-4 ovarian
DU-145 prostate = test system: DU-145 prostate
MDA-N = test system: MDA-N
RXF 393 renal = test system: RXF 393 renal
HS 578T breast = test system: HS 578T breast
COLO 205 colon = test system: COLO 205 colon
HCT-15 colon = test system: HCT-15 colon
NCI-H460 lung = test system: NCI-H460 lung

Measured: TGI

N#CC(c1ccc(Cl)cc1)c1c(O)nc2ccc(=N)cc-2n1O (centres undefined)
> 100 µM: SNB-75 CNS | M19-MEL melanoma | LXFL 529 NSCLC | K-562 leukemia | KM12 colon | SW-620 colon | HCT-116 colon | SK-OV-3 ovarian | SK-MEL-5 melanoma | CAKI-1 renal | NCI-H226 lung | RPMI-8226 leukemia | OVCAR-3 ovarian | EKVX NSCLC | SR leukemia | LOX IMVI melanoma | UACC-62 melanoma | KM20L2 colon | IGROV1 ovarian | TK-10 renal | HOP-92 NSCLC | HT29 colon | SF-295 CNS | NCI-H522 lung | SF-539 CNS | HL-60(TB) leukemia | UACC-257 melanoma | SK-MEL-28 melanoma | MOLT-4 leukemia | M14 melanoma | ACHN renal | A549 NSCLC | SF-268 CNS | DLD-1 colon | 786-0 renal | CCRF-CEM leukemia | DMS 273 small cell lung

O=c1oc2cc(N=Cc3ccccc3Cl)ccc2c2ccccc12
> 100 µM: SN12C renal | SNB-75 CNS | HOP-62 NSCLC | OVCAR-8 ovarian | A498 renal | MALME-3M melanoma | UO-31 renal | MDA-MB-231 breast | BT-549 breast | SK-MEL-2 melanoma | HCC-2998 colon | K-562 leukemia | KM12 colon | SW-620 colon | HCT-116 colon | T-47D breast | MDA-MB-435 | SK-MEL-5 melanoma | NCI/ADR-RES ovarian | CAKI-1 renal | NCI-H226 lung | RPMI-8226 leukemia | OVCAR-3 ovarian | EKVX NSCLC | OVCAR-5 ovarian | SNB-19 CNS | MCF7 breast | PC-3 prostate | SR leukemia | LOX IMVI melanoma | UACC-62 melanoma | IGROV1 ovarian | U251 CNS | HOP-92 NSCLC | NCI-H23 lung | HT29 colon | SF-295 CNS | OVCAR-4 ovarian | NCI-H522 lung | SF-539 CNS | HL-60(TB) leukemia | DU-145 prostate | UACC-257 melanoma | MDA-N | RXF 393 renal | SK-MEL-28 melanoma | MOLT-4 leukemia | HS 578T breast | M14 melanoma | COLO 205 colon | ACHN renal | HCT-15 colon | A549 NSCLC | SF-268 CNS | 786-0 renal | CCRF-CEM leukemia | NCI-H460 lung
